Source: ChEMBL document CHEMBL1159344, “Natural anti-HIV agents. Part IV. Anti-HIV constituents from Vatica cinerea” (J Nat Prod, 2003)
pIC50: −log10 of the molar value.

System: not listed separately
Experiment: Cytotoxicity against human HOG.R5 cells at 20 ug/ml
Format: cell-based
Settings: not given
For `CC1=C2[C@@H]3[C@H](CC[C@H](C)[C@]2(O)CC1=O)C3(C)C`, the Activity was “Non-toxic”.
With `CC(CCC[C@@H](C)[C@H]1CC[C@@]2(C)[C@@H]3CC[C@H]4C(C)(C)C(=O)CC[C@@]45C[C@@]35CC[C@]12C)C(=O)O` (stereo partly specified) [DIHYDROSCHIZANDRONIC ACID] the Activity was “Non-toxic”.
In the case of `CC1(C)CC[C@]2(CO)CC[C@]3(C)C(=CC[C@@H]4[C@@]5(C)CC[C@H](O)C(C)(C)[C@@H]5CC[C@]43C)[C@@H]2C1` [ERYTHRODIOL], the Activity was “Non-toxic”.
In the case of `C/C(=C\CC[C@@H](C)[C@H]1CC[C@@]2(C)[C@@H]3CC[C@H]4C(C)(C)C(=O)CC[C@@]45C[C@@]35CC[C@]12C)C(=O)O` [MANGIFERONIC ACID], the Activity was “Non-toxic”.

System: not listed separately
Experiment: Selectivity index, ratio of CC50 for HOG.R5 cells to IC50 for HIV1 3B
Format: functional
Settings: not given
In the case of `C=C(C/C=C/C(C)(C)O)[C@H]1CC[C@]2(C)[C@@H]1CC[C@@H]1[C@@]3(C)CC[C@H](O)C(C)(C)[C@@H]3CC[C@]12C`, the “Ratio CC50/IC50” value was 1.3.
With `C/C(=C\CC[C@@H](C)[C@H]1CC[C@@]2(C)C3=C(CC[C@]12C)[C@@]1(C)CCC(=O)C(C)(C)[C@@H]1CC3)C(=O)O` the “Ratio CC50/IC50” value was 1.7.
With `C=C(CC[C@H](O)C(=C)C)[C@H]1CC[C@]2(C)[C@@H]1CC[C@@H]1[C@@]3(C)CC[C@H](O)C(C)(C)[C@@H]3CC[C@]12C` the “Ratio CC50/IC50” value was 2.3.
With `CC1=C2[C@@H]3[C@H](CC[C@H](C)[C@]2(O)CC1=O)C3(C)C` the “Ratio CC50/IC50” value was >1.
In the case of `C=C(C)[C@@H]1CC[C@]2(C(=O)O)CC[C@]3(C)[C@H](CC[C@@H]4[C@@]5(C)CC[C@H](O)C(C)(C)[C@@H]5CC[C@]43C)[C@@H]12` [BETULINIC ACID], the “Ratio CC50/IC50” value was 1.1.
In the case of `C=C(C)[C@@H]1CC[C@]2(CO)CC[C@]3(C)[C@H](CC[C@@H]4[C@@]5(C)CC[C@H](O)C(C)(C)[C@@H]5CC[C@]43C)[C@@H]12` [BETULIN], the “Ratio CC50/IC50” value was 1.4.
With `CC1(C)CC[C@]2(CO)CC[C@]3(C)C(=CC[C@@H]4[C@@]5(C)CC[C@H](O)C(C)(C)[C@@H]5CC[C@]43C)[C@@H]2C1` [ERYTHRODIOL] the “Ratio CC50/IC50” value was >1.
With `C=Cc1c(C)c2cc3nc(c4c5[nH]c(cc6nc(cc1[nH]2)C(C)=C6CC)c(C)c5C(=O)[C@@H]4C(=O)OC)[C@@H](CCC(=O)O)[C@@H]3C` [PHEOPHORBIDE A] the “Ratio CC50/IC50” value was >13.
For `C[C@H]1[C@H](C)CC[C@]2(C(=O)O)CC[C@]3(C)C(=CC[C@@H]4[C@@]5(C)CC[C@H](O)C(C)(C)[C@@H]5CC[C@]43C)[C@H]12` [URSOLIC ACID], the “Ratio CC50/IC50” value was 4.9.
For `CC(=O)/C=C/C[C@@H](C)[C@H]1CC[C@@]2(C)[C@@H]3CC[C@H]4C(C)(C)C(=O)CC[C@@]45C[C@@]35CC[C@]12C` [VATICINONE], the “Ratio CC50/IC50” value was 1.4.

System: Human immunodeficiency virus 1
Experiment: Antiviral activity against HIV1 3B infected in human HOG.R5 assessed as inhibition of viral replication at 2.5 ug/ml by microtiter assay
Format: functional
Settings: Human immunodeficiency virus 1, 3B
Molecule `CC(=O)/C=C/C[C@@H](C)[C@H]1CC[C@@]2(C)[C@@H]3CC[C@H]4C(C)(C)[C@@H](O)CC[C@@]45C[C@@]35CC[C@]12C` has an inhibition at 2.5 µg/mL of 21%.

System: Human immunodeficiency virus 1
Experiment: Antiviral activity against HIV1 3B infected in human HOG.R5 assessed as inhibition of viral replication at 20 ug/ml by microtiter assay
Format: functional
Settings: Human immunodeficiency virus 1, 3B
With `CC(CCC[C@@H](C)[C@H]1CC[C@@]2(C)[C@@H]3CC[C@H]4C(C)(C)C(=O)CC[C@@]45C[C@@]35CC[C@]12C)C(=O)O` (stereo partly specified) [DIHYDROSCHIZANDRONIC ACID] the inhibition at 20 µg/mL was 0%.
`CC1(C)CC[C@]2(CO)CC[C@]3(C)C(=CC[C@@H]4[C@@]5(C)CC[C@H](O)C(C)(C)[C@@H]5CC[C@]43C)[C@@H]2C1` [ERYTHRODIOL] showed an inhibition at 20 µg/mL of 33%.
Molecule `C/C(=C\CC[C@@H](C)[C@H]1CC[C@@]2(C)[C@@H]3CC[C@H]4C(C)(C)C(=O)CC[C@@]45C[C@@]35CC[C@]12C)C(=O)O` [MANGIFERONIC ACID] has an inhibition at 20 µg/mL of 19%.

System: Human immunodeficiency virus 1
Experiment: Antiviral activity against HIV1 3B infected in human HOG.R5 assessed as inhibition of viral replication by microtiter assay
Format: functional, organism-based
Settings: Human immunodeficiency virus 1, 3B
`C=C(C/C=C/C(C)(C)O)[C@H]1CC[C@]2(C)[C@@H]1CC[C@@H]1[C@@]3(C)CC[C@H](O)C(C)(C)[C@@H]3CC[C@]12C` gave a pIC50 of 4.65.
`C/C(=C\CC[C@@H](C)[C@H]1CC[C@@]2(C)C3=C(CC[C@]12C)[C@@]1(C)CCC(=O)C(C)(C)[C@@H]1CC3)C(=O)O` showed a pIC50 of 5.07.
`C=C(CC[C@H](O)C(=C)C)[C@H]1CC[C@]2(C)[C@@H]1CC[C@@H]1[C@@]3(C)CC[C@H](O)C(C)(C)[C@@H]3CC[C@]12C` showed a pIC50 of 5.21.
`CC1=C2[C@@H]3[C@H](CC[C@H](C)[C@]2(O)CC1=O)C3(C)C` showed a pIC50 of 4.06.
`CC(=O)/C=C/C[C@@H](C)[C@H]1CC[C@@]2(C)[C@@H]3CC[C@H]4C(C)(C)[C@@H](O)CC[C@@]45C[C@@]35CC[C@]12C` showed a pIC50 of 5.23.
With `C=C(C)[C@@H]1CC[C@]2(C(=O)O)CC[C@]3(C)[C@H](CC[C@@H]4[C@@]5(C)CC[C@H](O)C(C)(C)[C@@H]5CC[C@]43C)[C@@H]12` [BETULINIC ACID] the pIC50 was 4.49.
`C=C(C)[C@@H]1CC[C@]2(CO)CC[C@]3(C)[C@H](CC[C@@H]4[C@@]5(C)CC[C@H](O)C(C)(C)[C@@H]5CC[C@]43C)[C@@H]12` [BETULIN] gave a pIC50 of 4.86.
Work on `C=C(C)[C@@H]1CC[C@]2(C(=O)O)CC[C@]3(C)[C@H](CC[C@@H]4[C@@]5(C)CCC(=O)C(C)(C)[C@@H]5CC[C@]43C)[C@@H]12` [BETUNOLIC ACID] yielded a pIC50 of 4.67.
In the case of `CC(CCC[C@@H](C)[C@H]1CC[C@@]2(C)[C@@H]3CC[C@H]4C(C)(C)C(=O)CC[C@@]45C[C@@]35CC[C@]12C)C(=O)O` (stereo partly specified) [DIHYDROSCHIZANDRONIC ACID], the pIC50 was 4.36.
In the case of `CC1(C)CC[C@]2(CO)CC[C@]3(C)C(=CC[C@@H]4[C@@]5(C)CC[C@H](O)C(C)(C)[C@@H]5CC[C@]43C)[C@@H]2C1` [ERYTHRODIOL], the pIC50 was 4.34.
With `C/C(=C\CC[C@@H](C)[C@H]1CC[C@@]2(C)[C@@H]3CC[C@H]4C(C)(C)C(=O)CC[C@@]45C[C@@]35CC[C@]12C)C(=O)O` [MANGIFERONIC ACID] the pIC50 was 4.36.
In the case of `C=Cc1c(C)c2cc3nc(c4c5[nH]c(cc6nc(cc1[nH]2)C(C)=C6CC)c(C)c5C(=O)[C@@H]4C(=O)OC)[C@@H](CCC(=O)O)[C@@H]3C` [PHEOPHORBIDE A], the pIC50 was 5.60.
With `C[C@H]1[C@H](C)CC[C@]2(C(=O)O)CC[C@]3(C)C(=CC[C@@H]4[C@@]5(C)CC[C@H](O)C(C)(C)[C@@H]5CC[C@]43C)[C@H]12` [URSOLIC ACID] the pIC50 was 4.83.
With `CC(=O)/C=C/C[C@@H](C)[C@H]1CC[C@@]2(C)[C@@H]3CC[C@H]4C(C)(C)C(=O)CC[C@@]45C[C@@]35CC[C@]12C` [VATICINONE] the pIC50 was 4.82.

System: not listed separately
Experiment: Cytotoxicity against human HOG.R5 cells
Format: cell-based
Settings: not given
In the case of `C=C(C/C=C/C(C)(C)O)[C@H]1CC[C@]2(C)[C@@H]1CC[C@@H]1[C@@]3(C)CC[C@H](O)C(C)(C)[C@@H]3CC[C@]12C`, the CC50 was 30.3 µM.
`C/C(=C\CC[C@@H](C)[C@H]1CC[C@@]2(C)C3=C(CC[C@]12C)[C@@]1(C)CCC(=O)C(C)(C)[C@@H]1CC3)C(=O)O` showed a CC50 of 14.8 µM.
`C=C(CC[C@H](O)C(=C)C)[C@H]1CC[C@]2(C)[C@@H]1CC[C@@H]1[C@@]3(C)CC[C@H](O)C(C)(C)[C@@H]3CC[C@]12C` showed a CC50 of 14.3 µM.
In the case of `CC1=C2[C@@H]3[C@H](CC[C@H](C)[C@]2(O)CC1=O)C3(C)C`, the CC50 was 85.5 µM.
`CC(=O)/C=C/C[C@@H](C)[C@H]1CC[C@@]2(C)[C@@H]3CC[C@H]4C(C)(C)[C@@H](O)CC[C@@]45C[C@@]35CC[C@]12C` showed a CC50 of 12.7 µM.
Molecule `C=C(C)[C@@H]1CC[C@]2(C(=O)O)CC[C@]3(C)[C@H](CC[C@@H]4[C@@]5(C)CC[C@H](O)C(C)(C)[C@@H]5CC[C@]43C)[C@@H]12` [BETULINIC ACID] has a CC50 of 36 µM.
Work on `C=C(C)[C@@H]1CC[C@]2(CO)CC[C@]3(C)[C@H](CC[C@@H]4[C@@]5(C)CC[C@H](O)C(C)(C)[C@@H]5CC[C@]43C)[C@@H]12` [BETULIN] yielded a CC50 of 19.5 µM.
In the case of `C=C(C)[C@@H]1CC[C@]2(C(=O)O)CC[C@]3(C)[C@H](CC[C@@H]4[C@@]5(C)CCC(=O)C(C)(C)[C@@H]5CC[C@]43C)[C@@H]12` [BETUNOLIC ACID], the CC50 was 105 µM.
In the case of `CC(CCC[C@@H](C)[C@H]1CC[C@@]2(C)[C@@H]3CC[C@H]4C(C)(C)C(=O)CC[C@@]45C[C@@]35CC[C@]12C)C(=O)O` (stereo partly specified) [DIHYDROSCHIZANDRONIC ACID], the CC50 was 43.9 µM.
For `CC1(C)CC[C@]2(CO)CC[C@]3(C)C(=CC[C@@H]4[C@@]5(C)CC[C@H](O)C(C)(C)[C@@H]5CC[C@]43C)[C@@H]2C1` [ERYTHRODIOL], the CC50 was 45.2 µM.
For `C/C(=C\CC[C@@H](C)[C@H]1CC[C@@]2(C)[C@@H]3CC[C@H]4C(C)(C)C(=O)CC[C@@]45C[C@@]35CC[C@]12C)C(=O)O` [MANGIFERONIC ACID], the CC50 was 44.1 µM.
In the case of `C=Cc1c(C)c2cc3nc(c4c5[nH]c(cc6nc(cc1[nH]2)C(C)=C6CC)c(C)c5C(=O)[C@@H]4C(=O)OC)[C@@H](CCC(=O)O)[C@@H]3C` [PHEOPHORBIDE A], the CC50 was 33.8 µM.
`C[C@H]1[C@H](C)CC[C@]2(C(=O)O)CC[C@]3(C)C(=CC[C@@H]4[C@@]5(C)CC[C@H](O)C(C)(C)[C@@H]5CC[C@]43C)[C@H]12` [URSOLIC ACID] gave a CC50 of 15.8 µM.
`CC(=O)/C=C/C[C@@H](C)[C@H]1CC[C@@]2(C)[C@@H]3CC[C@H]4C(C)(C)C(=O)CC[C@@]45C[C@@]35CC[C@]12C` [VATICINONE] showed a CC50 of 21.5 µM.
